Measured values reported in PubChem BioAssay AID330 (DTP/NCI, 2004).
Where “and” joins values, the source holds several entries; their conditions need not be identical. Identical values can stand only once. Inconclusive results and toxic doses are left out. How the source made its calls: active means survival T/C of 150% or more; inactive means T/C below 125% in these data.

System: P388 leukemia ip, CD2F1 mice, survival T/C
Test: NCI In Vivo Anticancer Drug Screen. Data for tumor model P388 Leukemia (intraperitoneal) in CD2F1 (CDF1) mice
Details: endpoint: median survival time, higher = longer survival
Outline: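 Mice carrying the transplanted tumor received test compound or vehicle. Survival was recorded in each group, and the value is the treated-group measurement divided by that of the vehicle-treated control group.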

[1] = dose: 60.0 mg/kg/injection, schedule: Q01DX005 (ip), vehicle: saline
[2] = dose: 120.0 mg/kg/injection, schedule: Q01DX005 (ip), vehicle: saline
[3] = dose: 50.0 mg/kg/injection, schedule: Q01DX009 (ip), vehicle: saline
[4] = dose: 100.0 mg/kg/injection, schedule: Q01DX009 (ip), vehicle: saline
[5] = dose: 200.0 mg/kg/injection, schedule: Q01DX009 (ip), vehicle: saline
[6] = dose: 100.0 mg/kg/injection, schedule: Q01DX001 (ip), vehicle: saline
[7] = dose: 200.0 mg/kg/injection, schedule: Q01DX001 (ip), vehicle: saline
[8] = dose: 200.0 mg/kg/injection, schedule: Q04DX003 (ip), vehicle: saline with Tween-80
[9] = dose: 100.0 mg/kg/injection, schedule: Q01DX009 (ip), vehicle: other
[10] = dose: 200.0 mg/kg/injection, schedule: Q01DX009 (ip), vehicle: other
[11] = dose: 12.5 mg/kg/injection, schedule: Q01DX009 (ip), vehicle: Klucel (hydroxypropylcellulose) (HPC)
[12] = dose: 25.0 mg/kg/injection, schedule: Q01DX009 (ip), vehicle: Klucel (hydroxypropylcellulose) (HPC)
[13] = dose: 50.0 mg/kg/injection, schedule: Q01DX009 (ip), vehicle: Klucel (hydroxypropylcellulose) (HPC)
[14] = dose: 100.0 mg/kg/injection, schedule: Q01DX009 (ip), vehicle: Klucel (hydroxypropylcellulose) (HPC)
[15] = dose: 200.0 mg/kg/injection, schedule: Q01DX009 (ip), vehicle: Klucel (hydroxypropylcellulose) (HPC)
[16] = dose: 6.25 mg/kg/injection, schedule: Q01DX009 (ip), vehicle: Klucel (hydroxypropylcellulose) (HPC)
[17] = dose: 50.0 mg/kg/injection, schedule: Q01DX005 (ip), vehicle: Klucel (hydroxypropylcellulose) (HPC)

Measured: T/C

CC(N)(CCS(=O)CP(=O)(O)O)C(=O)O (stereo not given)
inactive: [1] 100 % of control | [2] 94 % of control

OC1CC2CC1CC2O (stereo not given)
inactive: [3] 101 % of control | [4] 98 % of control | [5] 104 % of control

Cl/N=N/c1nc(-c2ccccc2)[nH]c1-c1ccccc1
inactive: dose: 50.0 mg/kg/injection, schedule: Q01DX001 (ip), vehicle: suspension in saline 109 % of control | dose: 100.0 mg/kg/injection, schedule: Q01DX001 (ip), vehicle: suspension in saline 101 % of control | dose: 200.0 mg/kg/injection, schedule: Q01DX001 (ip), vehicle: suspension in saline 99 % of control

C=C1CC2(CCCC3(C)CCC(C(C)C)CC32C)OC1=O (stereo not given)
inactive: [6] 101 % of control | [7] 106 % of control | dose: 400.0 mg/kg/injection, schedule: Q01DX001 (ip), vehicle: saline 110 % of control

COc1ccc([C@@H]2c3cc4c(cc3C[C@H]3COC(=O)[C@@H]32)OCO4)cc1OC
inactive: dose: 25.0 mg/kg/injection, schedule: Q04DX002 (ip), vehicle: Klucel (hydroxypropylcellulose) (HPC) 108 % of control | dose: 100.0 mg/kg/injection, schedule: Q04DX002 (ip), vehicle: Klucel (hydroxypropylcellulose) (HPC) 124 % of control

C/C(=C\C1C/C(=C/CCc2ccoc2)C(=O)O1)CCCc1ccoc1 (stereo not given)
inactive: dose: 25.0 mg/kg/injection, schedule: Q01DX009 (ip), vehicle: saline + alcohol 100 % of control | dose: 50.0 mg/kg/injection, schedule: Q01DX009 (ip), vehicle: saline + alcohol 107 % of control

OC(Cc1ccnc2ccccc12)C(Cl)(Cl)Cl (stereo not given)
inactive: [8] 104 % of control | dose: 400.0 mg/kg/injection, schedule: Q04DX003 (ip), vehicle: saline with Tween-80 90 % of control

CCCCCCCCCCCSSCCCCCCCCCCC
inactive: [9] 100 % of control | dose: 100.0 mg/kg/injection, schedule: Q04DX003 (ip), vehicle: other 109 % of control | [10] 109 % of control | dose: 200.0 mg/kg/injection, schedule: Q04DX003 (ip), vehicle: other 104 % of control | dose: 400.0 mg/kg/injection, schedule: Q01DX009 (ip), vehicle: other 104 % of control | dose: 400.0 mg/kg/injection, schedule: Q04DX003 (ip), vehicle: other 100 % of control

CC1=NN(c2ccccc2)C(=O)/C1=C1\SS/C(=C2\C(=O)N(c3ccccc3)N=C2C)S1
inactive: [11] 100 % of control | [12] 103 % of control | [13] 121 % of control and 90 % of control | [14] 92 % of control and 94 % of control | [15] 102 % of control

C=C1Sc2ccccc2N1C
inactive: [16] 111 % of control | [11] 107 % of control and 114 % of control | [12] 123 % of control

COCC(=O)c1ccccc1-c1ccccc1
inactive: dose: 50.0 mg/kg/injection, schedule: Q01DX005 (ip), vehicle: saline with Tween-80 100 % of control | dose: 100.0 mg/kg/injection, schedule: Q01DX005 (ip), vehicle: saline with Tween-80 103 % of control | dose: 200.0 mg/kg/injection, schedule: Q01DX005 (ip), vehicle: saline with Tween-80 110 % of control

O=C(O)C(c1ccccc1)C1CCCC1 (stereo not given)
inactive: dose: 50.0 mg/kg/injection, schedule: Q04DX003 (ip), vehicle: saline with Tween-80 110 % of control | dose: 100.0 mg/kg/injection, schedule: Q04DX003 (ip), vehicle: saline with Tween-80 110 % of control | [8] 105 % of control

COCc1c(-c2ccccc2)nn(O)c1-c1ccccc1
inactive: dose: 50.0 mg/kg/injection, schedule: Q01DX001 (ip), vehicle: saline with Tween-80 103 % of control | dose: 100.0 mg/kg/injection, schedule: Q01DX001 (ip), vehicle: saline with Tween-80 96 % of control | dose: 200.0 mg/kg/injection, schedule: Q01DX001 (ip), vehicle: saline with Tween-80 87 % of control

O=c1cc(O)nc2cn[nH]n12
inactive: [3] 99 % of control | [4] 90 % of control | [5] 101 % of control

CC(/C=C/c1ccccc1)=N\NC(=O)c1ccccc1O
inactive: dose: 60.0 mg/kg/injection, schedule: Q01DX005 (ip), vehicle: Klucel (hydroxypropylcellulose) (HPC) 93 % of control | dose: 120.0 mg/kg/injection, schedule: Q01DX005 (ip), vehicle: Klucel (hydroxypropylcellulose) (HPC) 95 % of control | dose: 240.0 mg/kg/injection, schedule: Q01DX005 (ip), vehicle: Klucel (hydroxypropylcellulose) (HPC) 89 % of control

CCCCOP(O)(=S)OCCCC.[Fe]
inactive: dose: 50.0 mg/kg/injection, schedule: Q01DX001 (ip), vehicle: Klucel (hydroxypropylcellulose) (HPC) 102 % of control | dose: 100.0 mg/kg/injection, schedule: Q01DX001 (ip), vehicle: Klucel (hydroxypropylcellulose) (HPC) 102 % of control | dose: 200.0 mg/kg/injection, schedule: Q01DX001 (ip), vehicle: Klucel (hydroxypropylcellulose) (HPC) 101 % of control

COC(=O)CNC(=O)C(Cc1c[nH]c2ccccc12)NC(=O)OC(C)(C)C (stereo not given)
inactive: dose: 12.5 mg/kg/injection, schedule: Q01DX009 (ip), vehicle: other 96 % of control | dose: 25.0 mg/kg/injection, schedule: Q01DX009 (ip), vehicle: other 89 % of control | dose: 50.0 mg/kg/injection, schedule: Q01DX009 (ip), vehicle: other 89 % of control | [9] 90 % of control | [10] 97 % of control

O[Si](c1ccccc1)(c1ccccc1)c1ccccc1.O[Si](c1ccccc1)(c1ccccc1)c1ccccc1.O[Si](c1ccccc1)(c1ccccc1)c1ccccc1.[O]=[V]
inactive: [17] 92 % of control | dose: 100.0 mg/kg/injection, schedule: Q01DX005 (ip), vehicle: Klucel (hydroxypropylcellulose) (HPC) 90 % of control | dose: 200.0 mg/kg/injection, schedule: Q01DX005 (ip), vehicle: Klucel (hydroxypropylcellulose) (HPC) 92 % of control

CN(C)c1nc(N)nc(N)n1
inactive: [16] 100 % of control | [11] 101 % of control and 115 % of control | [12] 99 % of control and 106 % of control | [13] 100 % of control and 107 % of control | [14] 100 % of control | [15] 105 % of control

O=S(=O)(OC1CCC2CCC1O2)c1ccc(Br)cc1 (stereo not given)
inactive: [3] 86 % of control | [4] 100 % of control | [5] 100 % of control

CS(=O)(=O)c1noc(N)n1
inactive: dose: 50.0 mg/kg/injection, schedule: Q01DX005 (ip), vehicle: saline 115 % of control | dose: 100.0 mg/kg/injection, schedule: Q01DX005 (ip), vehicle: saline 113 % of control | dose: 200.0 mg/kg/injection, schedule: Q01DX005 (ip), vehicle: saline 115 % of control

Nc1cnc2nc(N)[nH]c(=O)c2c1
inactive: dose: 100.0 mg/kg/injection, schedule: Q01DX009 (ip), vehicle: saline sonified 120 % of control | dose: 200.0 mg/kg/injection, schedule: Q01DX009 (ip), vehicle: saline sonified 110 % of control | dose: 400.0 mg/kg/injection, schedule: Q01DX009 (ip), vehicle: saline sonified 105 % of control

O=C1c2ccccc2-c2c(Br)cc(Br)c(NC(=O)C(Cl)Cl)c21
inactive: dose: 60.0 mg/kg/injection, schedule: Q01DX005 (ip), vehicle: saline with Tween-80 96 % of control | dose: 120.0 mg/kg/injection, schedule: Q01DX005 (ip), vehicle: saline with Tween-80 96 % of control | dose: 240.0 mg/kg/injection, schedule: Q01DX005 (ip), vehicle: saline with Tween-80 92 % of control

COc1ccc(C(F)C(N)C#N)cc1 (stereo not given)
inactive: [1] 109 % of control | [2] 98 % of control | dose: 240.0 mg/kg/injection, schedule: Q01DX005 (ip), vehicle: saline 107 % of control

CC(C)c1ccc(C2NC(C(=O)O)CS2)cc1 (stereo not given)
inactive: dose: 50.0 mg/kg/injection, schedule: Q01DX009 (ip), vehicle: suspension in saline 93 % of control | dose: 100.0 mg/kg/injection, schedule: Q01DX009 (ip), vehicle: suspension in saline 90 % of control

CCCCOc1ccc2nccc(N/N=C/c3ccc(OC)c4ccccc34)c2c1
inactive: dose: 12.5 mg/kg/injection, schedule: Q01DX005 (ip), vehicle: Klucel (hydroxypropylcellulose) (HPC) 88 % of control | dose: 25.0 mg/kg/injection, schedule: Q01DX005 (ip), vehicle: Klucel (hydroxypropylcellulose) (HPC) 88 % of control | [17] 92 % of control and 94 % of control

CCOP(=O)(Cc1cc(=O)oc2cc(OC)ccc12)OCC
inactive: [6] 101 % of control | [7] 100 % of control
